Experimental data reported in the NIST ThermoML archive (doi:10.1016/j.fluid.2013.10.012).
Numbers after ± are expanded uncertainties.

Assays:
[1] = refractive index (Na D-line) (dimensionless); settings: 298.15 K; 101.33 kPa; Liquid; Standard Abbe refractometry
[2] = Liquid; for mass density: 298.15 K, 101.33 kPa, Vibrating tube method; for vapor or sublimation pressure: Ebulliometric method (Recirculating still)

| Compound | refractive index [1] | mass density [2] [kg/m3] | vapor or sublimation pressure ([2]; 347.2 K) [kPa] | vapor or sublimation pressure ([2]; 342.8 K) [kPa] | vapor or sublimation pressure ([2]; 342 K) [kPa] | vapor or sublimation pressure ([2]; 393.4 K) [kPa] |
| --- | --- | --- | --- | --- | --- | --- |
| Cc1ccccc1C [1,2-dimethylbenzene] | 1.5031 ± 0.0007 | 875.5 ± 1 | 10 ± 0.15 |  |  |  |
| Cc1cccc(C)c1 [1,3-dimethylbenzene] | 1.4946 ± 0.0007 | 859.95 ± 1 |  | 10 ± 0.15 |  |  |
| Cc1ccc(C)cc1 [1,4-dimethylbenzene] | 1.4931 ± 0.0007 | 856.71 ± 1 |  |  | 10 ± 0.15 |  |
| CCCCCCCCCCC [undecane] | 1.4152 ± 0.0007 | 736.85 ± 1 |  |  |  | 10 ± 0.15 |
